Measurements taken from US10364263B2, “Cyclic phosphates and cyclic phosphoramidates for the treatment of neurologic disorders” (Retrophin, Inc., priority 2015, dated 2019).
Where two headings read alike, the source gives them in different places.

Assays:
[1] = Stability in human plasma; assay type: in vitro ADME; settings: human, plasma, 37° C.
Procedure: Compounds and positive control samples were dissolved in 100% DMSO at 3 mM. To investigate the stability of the test compounds in plasma, samples were made by diluting test compounds into plasma from the stock solutions to obtain a test compound concentration of 3 μM (0.1% DMSO). Before addition of a test compound, 990 μl of plasma were preincubated at 37° C. for 5 min in eppendorf. After addition of a test compound, 70 μl for each time point were transferred to a 96-deepwell plate, previously warmed at 37° C. in a DUBNOFF water bath. Each compound was tested at five time points, in duplicate (10, 20, 30, 40 and 60 min). At each time point, an aliquot of 50 μl was taken and transferred to a new 96-deepwell plate, and the reaction was stopped with 200 μl of 100% acetonitrile containing 0.1% formic acid and the appropriate internal standard. Then samples were centrifuged at 1100×g for 30 min at +4° C. and supernatants were transferred to a new 96-deepwell plate. Samples were evaporated under N2 and reconstituted in H2O/ACN 0.1% Formic Acid (98:2). Analysis was performed without a calibration curve (Acquity UPLC-Waters; SciexAPI4000). Time 0 was obtained by adding acetonitrile before addition of the test compound.

[2] = tested on: PANK2 silenced human neuroblastoma IMR32 cells (PANK2−/−); experiment: Coenzyme A assay in PANK2 silenced cells (LC-MS quantification of free CoA); assay type: cell-based; settings: compound added twice (24 h + 24 h), relative to 0.1% DMSO controls
Summary of the method: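 PANK2 shRNA-silenced IMR32 neuroblastoma cells were treated with compound (0.1% DMSO) for 24 h, then re-dosed with fresh compound for a further 24 h at 37 °C. TFA extracts of 1×10^6 cells were assayed for free CoA by LC-MS/MS (MRM 768.1→261.6/136.1). Results are given as fold change versus DMSO controls.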

[3] = Diastereoisomer A (upfield shift in 31P NMR), read-out: t1/2, Human Plasma, Diastereoisomer A (converted)
[4] = Diastereoisomer B, read-out: t1/2, Human Plasma, Diastereoisomer B (converted)

SMILES	half-life at 3 µM [1, 3] [min]	PANK2−/− CoA (Fold Increase): fold increase in Coenzyme A (CoA) levels relative to controls [2] [Fold Increase]	half-life at 3 µM [1, 4] [min]
COC(=O)CCNC(=O)[C@@H]1OP(=O)(N[C@@H](C)C(=O)OCCCc2ccccc2)OCC1(C)C (stereo in doubt) [compound 46, methyl 3-((2R,4R)-5,5-dimethyl-2-oxido-2-(((S)-1-oxo-1-(3-phenylpropoxy)propan-2-yl)amino)-1,3,2-dioxaphosphinane-4-carboxamido)propanoate]	57	2.74	
COC(=O)CCNC(=O)[C@@H]1OP(=O)(N[C@@H](C)C(=O)OCCc2ccccc2)OCC1(C)C (stereo in doubt) [compound 48, methyl 3-((2R,4R)-5,5-dimethyl-2-oxido-2-(((S)-1-oxo-1-phenethoxypropan-2-yl)amino)-1,3,2-dioxaphosphinane-4-carboxamido)propanoate]	> 60	2.16	
C[C@H](NP1(=O)OCC(C)(C)[C@H](C(=O)NCCC(=O)OC2Cc3ccccc3C2)O1)C(=O)OCCc1ccccc1 (stereo partly drawn) [1-54, 2,3-dihydro-1H-inden-2-yl 3-((4R)-5,5-dimethyl-2-oxido-2-(((S)-1-oxo-1-phenethoxypropan-2-yl)amino)-1,3,2-dioxaphosphinane-4-carboxamido)propanoate]	< 9.6	1.13	< 9.6
C[C@H](NP1(=O)OCC(C)(C)[C@H](C(=O)NCCC(=O)O[C@@H]2CCOC2)O1)C(=O)OCCc1ccccc1 (stereo partly drawn) [1-55, phenethyl ((4R)-5,5-dimethyl-2-oxido-4-((3-oxo-3-(((R)-tetrahydrofuran-3-yl)oxy)propyl)carbamoyl)-1,3,2-dioxaphosphinan-2-yl)-L-alaninate]	> 60	2.09	> 60
CN1CCCC(OC(=O)CCNC(=O)[C@@H]2OP(=O)(OCOC(=O)C(C)(C)C)OCC2(C)C)C1 (stereo partly drawn) [Compound No. 99, (((4R)-5,5-dimethyl-4-((3-((1-methylpiperidin-3-yl)oxy)-3-oxopropyl)carbamoyl)-2-oxido-1,3,2-dioxaphosphinan-2-yl)oxy)methyl pivalate]	39.6	10.44	
COC(=O)CCNC(=O)[C@@H]1OP(=O)(OCOC(=O)C(C)C)OCC1(C)C (stereo partly drawn) [Compound No. 103, (((4R)-4-((3-methoxy-3-oxopropyl)carbamoyl)-5,5-dimethyl-2-oxido-1,3,2-dioxaphosphinan-2-yl)oxy)methyl isobutyrate]	< 9.6	105.8	< 9.6
COC(=O)CCNC(=O)[C@@H]1OP(=O)(N[C@@H](Cc2ccccc2)C(=O)OC)OCC1(C)C (stereo partly drawn) [compound 9, methyl ((4R)-4-((3-methoxy-3-oxopropyl)carbamoyl)-5,5-dimethyl-2-oxido-1,3,2-dioxaphosphinan-2-yl)-L-phenylalaninate]		1.83	
COC(=O)CCNC(=O)[C@@H]1OP(=O)(N[C@H](C(=O)OC)C2CCCCC2)OCC1(C)C (stereo partly drawn) [compound 12, methyl 3-((4R)-2-(((S)-1-cyclohexyl-2-methoxy-2-oxoethyl)amino)-5,5-dimethyl-2-oxido-1,3,2-dioxaphosphinane-4-carboxamido)propanoate]		1.28	
COC(=O)CCNC(=O)[C@@H]1O[P@](=O)(OC(C)OC(=O)C(C)(C)C)OCC1(C)C (stereo partly drawn) [compound 102, 1-(((2R,4R)-4-((3-methoxy-3-oxopropyl)carbamoyl)-5,5-dimethyl-2-oxido-1,3,2-dioxaphosphinan-2-yl)oxy)ethyl pivalate]		2.5	
CC(C)OC(=O)OCO[P@@]1(=O)OCC(C)(C)[C@H](C(=O)NCCC(=O)OC(C)(C)C)O1 [compound 105, tert-butyl 3-((2S,4R)-2-(((isopropoxycarbonyl)oxy)methoxy)-5,5-dimethyl-2-oxido-1,3,2-dioxaphosphinane-4-carboxamido)propanoate]		4.72	
COC(=O)CCNC(=O)[C@@H]1O[P@@](=O)(OC(C)OC(=O)C(C)C)OCC1(C)C (stereo partly drawn) [compound 106, 1-(((2S,4R)-4-((3-methoxy-3-oxopropyl)carbamoyl)-5,5-dimethyl-2-oxido-1,3,2-dioxaphosphinan-2-yl)oxy)ethyl isobutyrate]		2.66	
COC(=O)CCNC(=O)[C@@H]1OP(=O)(NCCc2ccccc2)OCC1(C)C (stereo partly drawn) [compound 112, methyl 3-((4R)-5,5-dimethyl-2-oxido-2-(phenethylamino)-1,3,2-dioxaphosphinane-4-carboxamido)propanoate]		1.42	
COC(=O)CCNC(=O)[C@@H]1O[P@](=O)(NCC2CCCO2)OCC1(C)C (stereo partly drawn) [compound 119, methyl 3-((2S,4R)-5,5-dimethyl-2-oxido-2-(((tetrahydrofuran-2-yl)methyl)amino)-1,3,2-dioxaphosphinane-4-carboxamido)propanoate]		1.44	
COC(=O)CCNC(=O)[C@@H]1O[P@](=O)(N2CCOCC2)OCC1(C)C [compound 135, methyl 3-((2S,4R)-5,5-dimethyl-2-morpholino-2-oxido-1,3,2-dioxaphosphinane-4-carboxamido)propanoate]		1.3	
COC(=O)CCNC(=O)[C@@H]1O[P@@](=O)(N2CCOCC2)OCC1(C)C [compound 136, methyl 3-((2R,4R)-5,5-dimethyl-2-morpholino-2-oxido-1,3,2-dioxaphosphinane-4-carboxamido)propanoate]		1.93	
COC(=O)CCNC(=O)[C@@H]1O[P@@](=O)(N2CCS(=O)(=O)CC2)OCC1(C)C [compound 137, methyl 3-((2R,4R)-2-(1,1-dioxidothiomorpholino)-5,5-dimethyl-2-oxido-1,3,2-dioxaphosphinane-4-carboxamido) propanoate]		1.76	
COC(=O)CCNC(=O)[C@@H]1O[P@](=O)(N2CCS(=O)(=O)CC2)OCC1(C)C [compound 138, methyl 3-((2S,4R)-2-(1,1-dioxidothiomorpholino)-5,5-dimethyl-2-oxido-1,3,2-dioxaphosphinane-4-carboxamido) propanoate]		1.7	
COC(=O)CCNC(=O)[C@@H]1OP(=O)(N2CCN(C(C)=O)CC2)OCC1(C)C (stereo partly drawn) [compound 139, methyl 3-((4R)-2-(4-acetylpiperazin-1-yl)-5,5-dimethyl-2-oxido-1,3,2-dioxaphosphinane-4-carboxamido)propanoate]		2.72	
